PMC4774911, “Biochemical Screening of Five Protein Kinases from Plasmodium falciparum against 14,000 Cell-Active Compounds” (PLoS ONE, 2016)
Read-outs that look alike come from different tables or passages of the source.

Legend:
[1] = system: 3D7 PFLDH; set-up: method as in downloaded from ChEMBL; settings: ref downloaded from ChEMBL; cited from earlier work
[2] = system: P. falciparum 3D7 cells; settings: cited from earlier work
[3] = system: DD2; set-up: method as in downloaded from ChEMBL; settings: ref downloaded from ChEMBL; cited from earlier work
[4] = system: HepG2 cells; settings: cited from earlier work
[5] = biological target: T1, Plasmodium falciparum calcium-dependent protein kinase 1 (CDPK1) (Plasmodium falciparum, UniProt P62344); test: CDPK1 Kinase-Glo ATP-consumption screen and dose-response; format: biochemical; settings: hits below 1 uM; read-out: CDPK1 IC50
T1 construct: 6-Histidine (N); made in house
Summary of the method: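 ATP consumption by recombinant P. falciparum CDPK4 or CDPK1 measured as residual ATP by Kinase-Glo luminescence, with 40 μM Syntide-2 substrate and 90 min incubation stopped with 5 mM EGTA. Single-point screen at 1 μM final, followed by dose-response; no-substrate wells as negative control.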

[6] = system: DD2; set-up: method as in F.J. Gamo et al., Nature 2010; settings: P. falciparum Dd2; downloaded from ChEMBL ref F.J. Gamo et al., Nature 2010; cited from earlier work
[7] = system: 3D7 PFLDH; set-up: method as in F.J. Gamo et al., Nature 2010; settings: downloaded from ChEMBL ref F.J. Gamo et al., Nature 2010; cited from earlier work
[8] = biological target: T2, Plasmodium falciparum protein kinase 6 (PK6) (Plasmodium falciparum, UniProt Q8IDW1); test: biochemical; settings: hits below 1 uM; read-out: PK6 IC50
T2 construct: 6-Histidine (N); made in house
T2 sequence (Q8IDW1 1-305): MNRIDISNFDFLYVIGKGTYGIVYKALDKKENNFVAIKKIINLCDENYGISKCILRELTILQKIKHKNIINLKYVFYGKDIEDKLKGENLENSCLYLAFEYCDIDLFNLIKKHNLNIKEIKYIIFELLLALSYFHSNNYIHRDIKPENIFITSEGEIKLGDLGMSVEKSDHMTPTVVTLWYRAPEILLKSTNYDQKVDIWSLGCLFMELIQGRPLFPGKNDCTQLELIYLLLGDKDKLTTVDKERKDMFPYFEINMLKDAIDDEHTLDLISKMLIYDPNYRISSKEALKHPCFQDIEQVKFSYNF

[9] = system: DD2; set-up: method as in F.J. Gamo et al., Nature 2010; settings: downloaded from ChEMBL, ref F.J. Gamo et al., Nature 2010; cited from earlier work
[10] = system: 3D7 PFLDH; set-up: method as in F.J. Gamo et al., Nature 2010; concentration or dose not given beside the values; settings: downloaded from ChEMBL, ref F.J. Gamo et al., Nature 2010; cited from earlier work
[11] = 3D7, ref downloaded from ChEMBL
[12] = HEPG2, ref downloaded from ChEMBL
[13] = P. falciparum 3D7, downloaded from ChEMBL ref F.J. Gamo et al., Nature 2010
[14] = 3D7, downloaded from ChEMBL, ref F.J. Gamo et al., Nature 2010

T1 sequence (P62344 whole entry): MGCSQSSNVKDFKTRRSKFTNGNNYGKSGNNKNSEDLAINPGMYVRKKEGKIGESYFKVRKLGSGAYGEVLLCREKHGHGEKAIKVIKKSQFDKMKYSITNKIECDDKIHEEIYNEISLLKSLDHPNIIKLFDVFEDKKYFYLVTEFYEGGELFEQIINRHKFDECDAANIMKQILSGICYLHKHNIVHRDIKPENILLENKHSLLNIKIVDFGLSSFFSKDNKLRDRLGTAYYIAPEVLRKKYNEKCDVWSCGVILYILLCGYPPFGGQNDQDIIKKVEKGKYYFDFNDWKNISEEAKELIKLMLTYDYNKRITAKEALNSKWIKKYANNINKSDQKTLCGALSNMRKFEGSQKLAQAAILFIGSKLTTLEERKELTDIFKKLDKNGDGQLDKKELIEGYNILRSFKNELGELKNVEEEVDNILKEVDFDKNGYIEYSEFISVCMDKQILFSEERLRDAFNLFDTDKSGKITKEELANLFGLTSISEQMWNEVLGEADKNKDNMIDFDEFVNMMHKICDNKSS

Compound | PCT_INHIB_3D7_PFLDH [1] | PCT_IHB_3D7 [2, 11] | pXC50_3D7 [2, 11] | PCT_INHB_DD2 [3] | PCT_INHIB_HEPG2 [4, 12] | IC50 [5] [nM] | PCT_INHB_DD2 [6] | PCT_IHB_3D7 [2, 13] | pXC50_3D7 [2, 13] | PCT_INHIB_3D7_PFLDH [7] | IC50 [8] [nM] | PCT_INHIB_HEPG2 ([4]; HepG2 cells, downloaded from ChEMBL ref F.J. Gamo et al., Nature 2010) | PCT_IHB_3D7 [2, 14] [%] | pXC50_3D7 [2, 14] | PCT_INHB_DD2 [9] [%] | PCT_INHIB_3D7_PFLDH [10] [%] | PCT_INHIB_HEPG2 ([4]; HepG2, downloaded from ChEMBL, ref F.J. Gamo et al., Nature 2010) [%]
COc1cc2nccc(Nc3ccc(Oc4ccccc4)cc3)c2cc1OC.Cl [TCMDC-131917] | 0 | 100 | 6.165 | 99 | 13 | 145 | – | – | – | – | – | – | – | – | – | – | –
Nc1ncc(-c2cccc(F)c2)cc1-c1nc2cc(F)ccc2[nH]1.O=C(O)C(F)(F)F [TCMDC-133132] | – | – | – | – | – | – | 88 | 100 | 6.757 | 0 | 206 | 54 | – | – | – | – | –
COc1ccc(-c2cnc3ccc(N4CCCC4)nn23)cc1OC.O=CO [TCMDC-134177] | 0 | 98 | 6.113 | 98 | 40 | 310 | – | – | – | – | – | – | – | – | – | – | –
COc1ccc(-c2cnn3ccc(Nc4cc(OC)c(OC)c(OC)c4)nc23)cc1OC [TCMDC-134383] | 0 | 98 | 6.187 | 100 | 57 | 157 | – | – | – | – | – | – | – | – | – | – | –
O=C(O)C(F)(F)F.O=c1[nH]ccc2nc(N[C@@H]3CCCNC3)nc(Nc3ccc(S(=O)(=O)N4CCOCC4)cc3)c12 [TCMDC-135038] | – | – | – | – | – | 146 | – | – | – | – | 115 | – | 96 | 6.13 | 99 | 0 | 13
COc1ccc(Nc2ncc3c(-c4cccc(NC(=O)Cc5cccc(O)c5)c4)c[nH]c3n2)cc1OC [TCMDC-135247] | 0 | 100 | 6.156 | 96 | 44 | 312 | – | – | – | – | – | – | – | – | – | – | –
COc1ccc(-c2cnc3[nH]cc(-c4ccncc4)c3c2)cc1OC [TCMDC-135853] | 0 | 98 | 6.899 | 97 | 52 | 390 | – | – | – | – | – | – | – | – | – | – | –
CS(=O)(=O)Nc1cccc(-c2cnc3[nH]cc(-c4ccc(CN)cc4)c3c2)c1 [TCMDC-136218] | 2 | 98 | 6.0063 | 95 | 27 | 552 | – | – | – | – | – | – | – | – | – | – | –
CS(=O)(=O)Nc1cccc(-c2cnc3[nH]cc(-c4cccc(CN)c4)c3c2)c1 [TCMDC-136219] | 0 | 96 | 5.779 | 82 | 25 | 387 | – | – | – | – | – | – | – | – | – | – | –
CS(=O)(=O)c1cccc(-c2cnc3[nH]cc(-c4cccc(CCN)c4)c3c2)c1.O=C(O)C(F)(F)F [TCMDC-136307] | 0 | 99 | 5.808 | 74 | 0 | 44 | – | – | – | – | – | – | – | – | – | – | –
Oc1cccc(-c2cnc3ccc(NCc4ccc(F)cc4)nn23)c1 [TCMDC-136676] | 2 | 91 | 5.965 | 66 | 0 | 115 | – | – | – | – | – | – | – | – | – | – | –
N#Cc1ccc(-c2cnc3ccc(NCCc4cccnc4)nn23)cc1 [TCMDC-136679] | 6 | 99 | 6.593 | 81 | 27 | 246 | – | – | – | – | – | – | – | – | – | – | –
Clc1ccc(-c2cnc3ccc(NCCc4cccnc4)nn23)cc1 [TCMDC-136680] | 0 | 97 | 6.067 | 32 | 34 | 371 | – | – | – | – | – | – | – | – | – | – | –
